The results in this text go back to US20240207461A1, “RADIOACTIVE ANTITUMOR AGENT” (NIHON MEDI-PHYSICS CO., LTD., priority 2021, published 2024).

In series [1] the test system is CD-1 mice. The experiment in a line: Urinary renal toxicity marker (urinary NGAL/creatinine ratio by ELISA). The class given is in vivo. To be noted: urine 16 weeks after administration of ^225Ac-labeled antibody (15 kBq/mouse), n=4 to 5. On the procedure:
Whether combined administration of a ^225Ac-labeled anti-MUC5AC humanized antibody prepared using ^225Ac-labeled DOTAGA-DBCO and a compound expected to have a renal protective effect (renal protective agent) reduces delayed renal toxicity caused by radiation emitted from ^225Ac or ^225Ac daughter nuclide was evaluated. […]
During the observation period, body weight measurement, blood cell measurement, and renal toxicity marker measurement were performed over time and signs of toxicity were evaluated.
Urine was collected from each individual 16 weeks after the administration of the ^225Ac-labeled anti-MUC5AC humanized antibody, and neutrophil gelatinase-associated lipocalin (NGAL), and creatinine concentration of the urine samples were measured by ELISA. […] The NGAL value corrected for urine concentration was calculated by dividing the obtained NGAL value by the creatinine value (urinary NGAL/creatinine ratio, hereinafter referred to as urinary N/C ratio). The calculated urinary N/C ratio was confirmed using Stat PreClinica (manufactured by Takumi Information Technology Co., Ltd.) for the homoscedasticity of the measured values. […]

Series [2] concerns CD-1 mice. The experiment in a line: Autopsy and measurement of kidney weight. The format is in vivo, mouse. To be noted: at autopsy, 184 days from administration. The procedure: The ^225Ac-labeled anti-MUC5AC humanized antibody produced in Production Example 3 was administered to CD-1 mice (5 weeks old, male, manufactured by Charles River Japan), each group n=5 at a dose of 15 kBq/mouse and, as a renal protective agent, any of Zn-DTPA, furosemide, spironolactone, and eplerenone was administered in combination at the dosage, administration method, administration frequency, and initial administration timing shown in Table 1. That is, a group to which only ^225Ac-labeled anti-MUC5AC humanized antibody was administered (Comparative Example 1), a group to which ^225Ac-labeled anti-MUC5AC humanized antibody and each renal protective agent administered in combination (Example 1 to Example 7), and a group to which only a renal protective agent is administered without administration of ^225Ac-labeled anti-MUC5AC humanized antibody (Comparative Examples 2 to 5) were established. The dose of the ^225Ac-labeled anti-MUC5AC humanized antibody, each renal protective agent, and feeding conditions are shown in Table 1. The sustained release tablets used for the transdermal administration group of each renal protective agent were those manufactured by Innovative Research of America, and the mixed feed containing 0.004% of each renal protective agent used was manufactured by Oriental Yeast Co., Ltd.
On the final day of the observation period (184 days from the day of administration of the ^225Ac-labeled anti-MUC5AC humanized antibody), euthanasia and autopsy were performed by exsanguination under isoflurane anesthesia. After autopsy, the kidneys were collected and weighed. The obtained organ weight measurement results (excluding Example 7) were confirmed for the homoscedasticity of the measured values. Since homoscedasticity was confirmed for all items, a significant difference test was performed using the Tukey method, which is a parametric test. The significance level was set to 5%.

`O=C([O-])CN(CCN(CC(=O)[O-])CC(=O)[O-])CCN(CC(=O)[O-])CC(=O)[O-].[Na+].[Na+].[Na+].[Zn+2]` [Comparative Example 2, Zn-DTPA]: in the series with CD-1 mice [1], the “N/C ratio (urinary NGAL/creatinine ratio)” value is reported as 1.1 ± 0.60. Further, in the series with CD-1 mice [2], the body weight is listed as 44.48 ± 4.5 g, the kidney weight worked out at 0.75 ± 0.12 g and the “kidney weight/body weight ratio” value is listed as 0.017 ± 0.001.
